This note sets out measurements from PubChem BioAssay (NCI).

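48-hour exposure; five concentrations; linearly interpolated endpoints. The concentration for 50% growth inhibition is given as GI50. TGI denotes the concentration required for complete inhibition of growth.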

The subject of the test is MDA-MB-468 breast. Kind of test: DTP human tumour cell line panel, 48 h.
As for `O=S(=O)(NCCCNc1nccc(-c2[nH]c(-c3ccccc3)nc2-c2ccc(F)c(O)c2)n1)c1ccc(C(F)(F)F)cc1`, the GI50 was 2.44 µM and the total growth inhibition concentration (TGI) stood at 7.7 µM.

For the compound `CC1COCC(C)N1C1=C(Cl)C(=O)c2ccccc2C1=O` (configuration not stated), the GI50 was 1.59 µM and the TGI stood at 3.28 µM.

As for `Cc1cc(Cl)ccc1NS(=O)(=O)c1ccc(-c2cnc(C3CC3)o2)cc1`, the GI50 was 0.0861 µM and the TGI came to 13.7 µM.

With `Oc1[nH]c2cc(Cl)ccc2c1/C=c1/ccc2c(c1)N=C(c1cc(F)cc(F)c1)N=2`, the GI50 was 2.51 µM and the TGI was 5.98 µM.

On to `CO[C@]1(CN2CCN3CCCC[C@@H]3C2)/C=C/C[C@H](C)[C@@H](C)S(=O)(=O)NC(=O)c2ccc3c(c2)N(C[C@@H]2CC[C@H]21)C[C@@]1(CCCc2cc(Cl)ccc21)CO3`, for which the GI50 was 0.166 µM and the TGI is 1.24 µM.

With `CC/C=C\C/C=C\C[C@H](O)C/C=C1/C(=O)C=C[C@@H]1C/C=C\CCCC(=O)OC`, the GI50 was 1.47 µM and the TGI was found to be 3.16 µM.

Turning to `O=c1c2ccccc2oc2ccc(OCCCCCCN3CCCCCC3)cc12`, the GI50 was 1.97 µM and the TGI was 5.87 µM.

On to `CN1CCN(c2nc(-c3ccncc3)nc3sc4c(c23)CCCCCC4)CC1`, for which the GI50 is 5.2 µM and the total growth inhibition concentration (TGI) worked out at 20.2 µM.

As for `COc1ccc(CCc2cc(OC)c(OC)c(OC)c2)cc1`, the GI50 was 0.0599 µM and the TGI is > 100 µM.

Turning to `Cc1nc(N)nc2ccccc12`, the GI50 was > 100 µM and the TGI is > 100 µM.

In the case of `CC(=O)Oc1ccc(/C=N/NC(N)=S)nc1`, the GI50 is 2.75 µM and the TGI came out at 15.3 µM.

For the compound `CC1(C)OC2C(COS(N)(=O)=O)SC(n3cnc4cncnc43)C2O1` (configuration not stated), the GI50 was > 100 µM and the TGI was > 100 µM.

On to `C[C@@H](Nc1c(C#N)cnc2ccc(-c3cnc(N)nc3)cc12)c1ccccc1`, for which the GI50 was 0.722 µM and the TGI turned out to be 5.8 µM.

Consider `CCOc1cc(-c2ccc[nH]2)[nH]c1/C=C1\N=C(C)C(C(=O)OC)=C1C`, for which the GI50 was 0.0583 µM and the TGI came to 0.444 µM.

As to `Cc1cc(C(O)CN(C)C)cc2c1ccc1cc(C(C)C)ccc12` (configuration not stated), the GI50 was 1.85 µM and the total growth inhibition concentration (TGI) is 3.47 µM.

On to `O=C(NCCCCCCCNC(=O)OCc1ccc2c(Cl)cc(Cl)c(O)c2n1)OCc1ccc2c(Cl)cc(Cl)c(O)c2n1`, for which the GI50 was 0.389 µM and the TGI turned out to be 1.2 µM.

Take `CO[C@@]12[C@@H]3NC3CN1C1=C(C(=O)C(N)=C(C)C1=O)[C@@H]2COC(N)=O` (some centres not stated): the 50% growth inhibitory concentration (GI50) is 0.238 µM and the TGI came out at 1.28 µM.

As for `Cc1ccc(C(C)C)cc1NC(=O)Nc1ccc([N+](=O)[O-])cc1`, the GI50 was 2.39 µM and the TGI is 6.82 µM.

As for `Oc1ccc(Cl)cc1Cc1cc(Cl)ccc1O`, the GI50 was 2.19 µM and the TGI was determined as 7.29 µM.

For `COc1cc([N+](=O)[O-])c2ncccc2c1[N+](=O)[O-]`, the GI50 was 1.72 µM and the TGI stood at 3.67 µM.

Regarding `C=CC1CN2CCC1CC2C(O)c1ccnc2ccccc12` (configuration not stated), the GI50 is > 100 µM and the TGI is > 100 µM.

Regarding `COc1cccc(/C=C/C(=O)c2cc3c(N)c(C(=O)Nc4cccc5ccccc45)sc3nc2C)c1`, the GI50 is 1.07 µM and the TGI turned out to be 3 µM.

Turning to `CCC(CC(C)C)Nc1ccc(NC(CC)CC(C)C)cc1` (configuration not stated), the GI50 was 11.7 µM and the TGI is 24 µM.

Take `COc1cc(NC(=O)Nc2cnc(Nc3ccc(N4CCOCC4)cc3)nc2Oc2cccc(OC)c2)cc(OC)c1`: the GI50 was 1.74 µM and the TGI was found to be 9.54 µM.

As for `CC1(C)CC[C@]2(C(N)=O)CC[C@]3(C)C(=CC[C@@H]4[C@@]5(C)C/C(=C/c6ccncc6)C(=O)C(C)(C)[C@@H]5CC[C@]43C)[C@@H]2C1`, the GI50 was 2.33 µM and the TGI was 7.44 µM.

In the case of `Nc1[nH]c(=O)ncc1CO`, the GI50 is > 100 µM and the TGI was > 100 µM.
